Patent US10508109B2 (priority 2015, dated 2019)
Read-outs that look alike come from different tables or passages of the source.

What was measured:
SUV39H2 = SUV39H2 (Homo sapiens (Human), UniProt Q9H5I1); experiment: biochemical; format: biochemical; conditions: 3H-SAM 100 nM, H3 Histone Peptide 350 nM, room temperature 3 hours
In short: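 Scintillation proximity format: reactions were halted with streptavidin SPA beads (50 μg/well final) after 3 h at room temperature with enzyme dosed by lot-specific activity.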

A549 = experiment: Cell-based assay, anti-proliferative activity (Cell Counting Kit-8, 72 hours); conditions: Homo sapiens, read-out: A549 IC50
In short: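 After compound exposure of cells in 96-well plates, growth was measured colorimetrically and converted into IC50 values.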

[1] = A549 cells, 72 hours exposure, Cell Counting Kit-8

Chain of SUV39H2 (Q9H5I1 whole entry): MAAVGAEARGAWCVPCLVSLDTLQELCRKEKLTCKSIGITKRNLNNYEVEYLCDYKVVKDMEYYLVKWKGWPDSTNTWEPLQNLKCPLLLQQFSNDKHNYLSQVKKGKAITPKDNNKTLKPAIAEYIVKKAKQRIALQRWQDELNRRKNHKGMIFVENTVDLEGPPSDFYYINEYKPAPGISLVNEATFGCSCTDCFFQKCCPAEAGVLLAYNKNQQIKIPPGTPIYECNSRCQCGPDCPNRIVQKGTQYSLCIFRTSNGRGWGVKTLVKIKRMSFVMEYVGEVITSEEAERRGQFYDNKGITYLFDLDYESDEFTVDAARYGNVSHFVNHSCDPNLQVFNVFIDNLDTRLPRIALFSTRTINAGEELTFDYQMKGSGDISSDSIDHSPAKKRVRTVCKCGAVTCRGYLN

Row | Compound | IC50 (SUV39H2) [nM] | IC50 (A549; [1]) [nM] | IC50 (A549; A549, 72 h) [nM]
1 | COc1cc(OC)c(-c2cn3ccc(N4CCN(c5nccc(N6CCN(C(C)=O)CC6)n5)CC4)cc3n2)cc1Cl [Example 373, 1-(4-(2-(4-(2-(5-chloro-2,4-dimethoxyphenyl)imidazo[1,2-a]pyridin-7-yl)piperazin-1-yl)pyrimidin-4-yl)piperazin-1-yl)ethanone 2,2,2-trifluoroacetate] | 13.6 | 640 | 
2 | COc1cc(OC)c(-c2cn3ccc(N4CCN(c5ncc(N6CCN(C)CC6)cn5)CC4)cc3n2)cc1Cl [Example 430, 2-(5-chloro-2,4-dimethoxyphenyl)-7-(4-(5-(4-methylpiperazin-1-yl)pyrimidin-2-yl)piperazin-1-yl)imidazo[1,2-a]pyridine] | 13.7 | 950 | 
3 | COc1cc(OC)c(-c2cn3ccc(N4CCN(c5cnc(N6CCN(C)CC6)nc5)CC4)cc3n2)cc1Cl [Example 358, 2-(5-chloro-2,4-dimethoxyphenyl)-7-(4-(2-(4-methylpiperazin-1-yl)pyrimidin-5-yl)piperazin-1-yl)imidazo[1,2-a]pyridine] | 17.1 | 390 | 
4 | COc1cc(OC)c(-c2cn3ccc(N[C@H]4CC[C@@H](NCc5cccc(F)c5)CC4)cc3n2)cc1Cl [Example 402, cis-N^1-(2-(5-chloro-2,4-dimethoxyphenyl)imidazo[1,2-a]pyridin-7-yl)-N^4-(3-fluorobenzyl)cyclohexane-1,4-diamine bis(2,2,2-trifluoroacetate)] | 18.7 | 740 | 
5 | COc1cc(OC)c(-c2cn3ccc(N4CCN(c5ccnc(N6CCCC(O)C6)n5)CC4)cc3n2)cc1Cl (stereo not drawn) [Example 357, 1-(4-(4-(2-(5-chloro-2,4-dimethoxyphenyl)imidazo[1,2-a]pyridin-7-yl)piperazin-1-yl)pyrimidin-2-yl)piperidin-3-ol] | 25.8 | 600 | 
6 | CNc1ccnc(N2CCN(c3ccn4cc(-c5cc(Cl)c(OC)cc5OC)nc4c3)CC2)n1 [Example 364, 2-(4-(2-(5-chloro-2,4-dimethoxyphenyl)imidazo[1,2-a]pyridin-7-yl)piperazin-1-yl)-N-methylpyrimidin-4-amine] | 40.7 |  | 550
7 | COc1cc(OC)c(-c2cn3ccc(N4CCN(C(C)=O)CC4C)cc3n2)cc1Cl (stereo not drawn) [Example 308, 1-(4-(2-(5-chloro-2,4-dimethoxyphenyl)imidazo[1,2-a]pyridin-7-yl)-3-methylpiperazin-1-yl)ethanone] | 3.5 | 8600 | 
8 | COc1cc(OC)c(-c2cn3ccc(N4CCN(c5cc(C)ccn5)CC4)cc3n2)cc1Cl [Example 327, 2-(5-chloro-2,4-dimethoxyphenyl)-7-(4-(4-methylpyridin-2-yl)piperazin-1-yl)imidazo[1,2-a]pyridine] | 46.7 |  | 870
9 | COc1cc(OC)c(-c2cn3ccc(NC4CCC(NCc5ccc(F)cc5)CC4)cc3n2)cc1Cl (stereo not drawn) [Example 320, (1r,4r)-N^1-(2-(5-chloro-2,4-dimethoxyphenyl)imidazo[1,2-a]pyridin-7-yl)-N^4-(4-fluorobenzyl)cyclohexane-1,4-diamine] | 95 | 430 | 
10 | COc1cc(OC)c(-c2cn3ccc(N4CCN(c5cnc(N6CCCC(N)C6)nc5)CC4)cc3n2)cc1Cl (stereo not drawn) [Example 417, 1-(5-(4-(2-(5-chloro-2,4-dimethoxyphenyl)imidazo[1,2-a]pyridin-7-yl)piperazin-1-yl)pyrimidin-2-yl)piperidin-3-amine] | 9.91 | 620 | 
11 | COc1cc(OC)c(-c2cn3ccc(N4CCN(c5ccnc(N6CCC(O)CC6)n5)CC4)cc3n2)cc1Cl [Example 332, 1-(4-(4-(2-(5-chloro-2,4-dimethoxyphenyl)imidazo[1,2-a]pyridin-7-yl)piperazin-1-yl)pyrimidin-2-yl)piperidin-4-ol] | 21.6 |  | 910
12 | COCC(=O)N1CCN(c2ccn3cc(-c4cc(Cl)c(OC)cc4OC)nc3c2)CC1C (stereo not drawn) [Example 310, 1-(4-(2-(5-chloro-2,4-dimethoxyphenyl)imidazo[1,2-a]pyridin-7-yl)-2-methylpiperazin-1-yl)-2-methoxyethanone] | 1.78 | 10000 | 
